Experimental data reported in US12291721B2, “Activated lymphocytes comprising cytokine-induced killer cells and preparation method therefor” (GREENCROSSCELL, priority 2019, dated 2025).

Columns and labels:
[1] = system: human pancreatic cancer (AsPC-1); assay: Anticancer effects on human pancreatic cancer (AsPC-1) xenograft; type: in vivo, nude mice
Protocol: Nude mice were purchased and stored in a specific pathogen free (SPF) room of the Korea Research Institute of Bioscience and Biotechnology, and allowed to acclimate for 1 week before use. Human pancreatic cancer, that is, AsPC1 cells were injected subcutaneously into each nude mouse at a concentration of 9×10^6 cells. […] As a positive control group, adriamycin was administered intravenously at a concentration of 2 mg/kg once a week for total 4 times.
(§1) Standard deviations (SDs) and p-values of all test results were calculated using ANOVA (Prisim, GraphPad software, USA) and student's t-test.

[2] = system: human prostate cancer (PC-3); assay: Anticancer effects on human prostate cancer (PC-3) xenograft; type: in vivo, nude mice
Protocol: Nude mice were purchased and stored in a specific pathogen free (SPF) room of the Korea Research Institute of Bioscience and Biotechnology, and allowed to acclimate for 1 week before use. Human prostate cancer, that is, PC-3 cells were injected subcutaneously into each nude mouse at a concentration of 9×10^6 cells. […] As a positive control group, adriamycin was administered intravenously at a concentration of 2 mg/kg once a week for total 4 times.
as §1

[3] = system: human renal cancer (ACHN); assay: Anticancer effects on human renal cancer (ACHN) xenograft
Protocol: Nude mice were purchased and stored in a specific pathogen free (SPF) room of the Korea Research Institute of Bioscience and Biotechnology, and allowed to acclimate for 1 week before use. Human renal cancer, that is, ACHN cells were injected subcutaneously into each nude mouse at a concentration of 1.2×10^7 cells. […] As a positive control group, adriamycin was administered intravenously at a concentration of 2 mg/kg once a week for total 4 times.
Standard deviations (SDs) and p-values of all test results were calculated using ANOVA (Prisim. GraphPad software, USA) and student's t-test.

[4] = system: human colon cancer (SW620); assay: Anticancer effects on human colon cancer (SW620) xenograft; type: in vivo, nude mice
Protocol: Nude mice were purchased and stored in a specific pathogen free (SPF) room of the Korea Research Institute of Bioscience and Biotechnology, and allowed to acclimate for 1 week before use. Human colon cancer, that is, SW620 cells were injected subcutaneously into each nude mouse at a concentration of 6×10^6 cells. […] As a positive control group, adriamycin was administered intravenously at a concentration of 2 mg/kg once a week for total 4 times.
as §1

[5] = system: human melanoma cancer (LOX-IMV1); assay: Anticancer effects on human melanoma cancer (LOX-IMV1) xenograft
Protocol: Nude mice were purchased and stored in a specific pathogen free (SPF) room of the Korea Research Institute of Bioscience and Biotechnology, and allowed to acclimate for 1 week before use. Human melanoma cancer, that is, LOX-IMV1 cells were injected subcutaneously into each nude mouse at a concentration of 1.5×10^6 cells. […] As a positive control group, adriamycin was administered intravenously at a concentration of 2 mg/kg once a week for total 3 times.
as §1

[6] = adriamycin 2 mg/kg i.v., day 25
[7] = day 25 compared with Day-1 (100%), adriamycin 2 mg/kg
[8] = adriamycin 2 mg/kg i.v., day 22
[9] = adriamycin 2 mg/kg i.v., day 28
[10] = adriamycin 2 mg/kg i.v., day 15

## COc1cccc2c1C(=O)c1c(O)c3c(c(O)c1C2=O)C[C@@](O)(C(=O)CO)C[C@@H]3O[C@H]1C[C@H](N)[C@H](O)[C@H](C)O1 [adriamycin]
[1]; [6]
  growth inhibition (tumor size): 48%
  growth inhibition (tumor weight): 44%
  tumor size: 130±28 mm^3
  tumor weight: 473 ± 64 mg
[1]; adriamycin (2 mg/kg), day 25, AsPC-1
  Tumor growth rate (%) compared to the control group: 55 ± 8%
[1]; [7]
  body weight change: 125%
[2]; [8]
  growth inhibition (tumor size): 40%
  growth inhibition (tumor weight): 40%
  tumor size: 225±59 mm^3
  tumor weight: 808 ± 156 mg
[2]; adriamycin (2 mg/kg), day 22, PC-3
  Tumor growth rate (%) compared to the control group: 60 ± 12%
[2]; day 22 compared with Day-1 (100%), adriamycin 2 mg/kg
  body weight change: 102%
[3]; [9]
  growth inhibition (tumor size): 40%
  growth inhibition (tumor weight): 37%
  tumor size: 192±44 mm^3
  tumor weight: 409 ± 41 mg
[3]; adriamycin (2 mg/kg), day 28, ACHN
  Tumor growth rate (%) compared to the control group: 63 ± 6%
[3]; day 28 compared with Day-1 (100%), adriamycin 2 mg/kg
  body weight change: 95%
[4]; [6]
  growth inhibition (tumor size): 48%
  growth inhibition (tumor weight): 49%
  tumor size: 142±97 mm^3
  tumor weight: 834 ± 306 mg
[4]; adriamycin (2 mg/kg), day 25, SW-620
  Tumor growth rate (%) compared to the control group: 54 ± 28%
[4]; [7]
  body weight change: 114%
[5]; [10]
  growth inhibition (tumor size): 72%
  growth inhibition (tumor weight): 70%
  tumor weight: 496 ± 306 mg
[5]; adriamycin (2 mg/kg), day 15, LOX-IMVI
  Tumor growth rate (%) compared to the control group: 30 ± 18%
[5]; day 15 compared with Day-1, adriamycin 2 mg/kg
  body weight change: 122%
